Data on 1 compound can be found in patent publication US5683999A, “Cyclic urea HIV protease inhibitors” (The DuPont Merck Pharmaceutical Company, priority 1996, dated 1997).

The structures appear in SMILES notation. In brackets after ≈: the same amount, converted by molar mass.

This test relates to HIV-1 (RF). The test is described as follows: HIV RNA Assay (HIV-1 infected MT-2 cells). In kind it is cell-based. Particulars: Human immunodeficiency virus 1, MT2, 72 h; HIV-1 (RF) infected MT-2 cells, 3 days of culture; read-out: IC90 value (concentration of compound required to reduce the HIV RNA level by 90%). The procedure:
DNA Plasmids and in vitro RNA transcripts
Plasmid pDAB 72 containing both gag and pol sequences of BH10 (bp 113-1816) cloned into PTZ 19R was prepared according to Erickson-Viitanen et al., AIDS Research and Human Retroviruses (1989) 5:577. The plasmid was linearized with Bam HI prior to the generation of in vitro RNA transcripts using the Riboprobe Gemini system II kit (Promega) with T7 RNA polymerase. Synthesized RNA was purified by treatment with RNase free DNAse (Promega), phenol-chloroform extraction, and ethanol precipitation. RNA transcripts were dissolved in water, and stored a -70° C. The concentration of RNA was determined from the A260.
Biotinylated capture probes were purified by HPLC after synthesis on an Applied Biosystems (Foster City, Calif.) DNA synthesizer by addition of biotin to the 5' terminal end of the oligonucleotide, using the biotin-phosphoramidite reagent of Cocuzza, Tet. Lett. (1989) 30:6287. […]
MT-2, CEM, and H9 cells were maintained in RPMI 1640 supplemented with 5% fetal calf serum (FCS), 2 mM L-glutamine and 50 μg/mL gentamycin, all from Gibco. […] Infectious titers of HIV-1(RF) stocks were 1-3×10^7 PFU (plaque forming units)/mL as measured by plaque assay on MT-2 cells (see below). […]

Take `Nc1ccn([C@H]2CC[C@@H](CO)O2)c(=O)n1` [ddC, 2',3'-dideoxycytidine]: the IC90 stood at 0.2 µg/mL (≈ 0.947 µM).
